Our source for the percent cross reactivity values is patent US10088490B2, “Assay for analytes using multiple receptors” (Siemens Healthcare Diagnostics Inc., priority 2010, dated 2018).

Holding throughout (type): binding
Test [1] relates to Antibody A specific for cortisol (clone 16DC/17.7, IgG1κ). Briefly: LOCI competitive cortisol immunoassay, cross-reactivity screening with Biotinylated Antibody A Reagent. The note with it: 100% A Biotinylated Antibody; steroid-stripped serum with cortisol (5 ng/dL). As for the experimental part: (§1) The antibodies were subjected to analytical size exclusion chromatography prior to any manipulations.
(§2) NHS-PEO4-Biotin was dissolved fresh at 10 mg/mL in Antibody Dialysis Buffer. […] The mixture was rocked at 25° C. for exactly 3 hours. A 200 mM solution of glycine was prepared by dissolving 750 mg glycine in Antibody Dialysis Buffer to a total volume of 50 mL. At the end of the 3-hour biotinylation reaction, 1.52 mL of the 200 mM glycine solution was added to the reaction mixture. The quenched reaction mixture was rocked an additional 60 minutes at 25° C.
(§3) The biotinylated antibody was then purified using preparatory HPLC using Antibody Dialysis Buffer as the mobile phase. […] This reagent was designated as the Biotinylated Antibody Reagent.
(§4) The assay used for screening purposes was conducted on the DIMENSION® VISTA® instrument (system) (Siemens Healthcare Diagnostics Inc., Newark Del.). Initially, 20 μL Biotinylated Antibody Reagent with 15 μL system water was added to the vessel. After 22 seconds, 15 μL sample with 15 μL system water were added to the vessel. After almost 4 minutes, 20 μL Chemibead Reagent with 15 μL system water were added to the vessel. Approximately 7 minutes later, 20 μL Sensibead Reagent with 135 μL system water was added to the vessel. The LOCI® read was taken after approximately 5 minutes. The assay from the first reagent addition to the final read took approximately 16 minutes. The contents of the vessel when the final read is taken were as follows: 2 ng/mL Biotinylated Antibody Reagent, 4 μg/mL Chemibead Reagent, 56 μg/mL Sensibead Reagent, and […] sample. The assay is a competitive format, which means that the greater the concentration of analyte in the sample, the smaller is the signal generation. This is because a detectable complex is formed by the Biotinylated Antibody Reagent, Chemibead Reagent, and Sensibead Reagent in the absence of analyte. The presence of analyte decreases the proportion of Biotinylated Antibody Reagent that is free to form detectable complexes.
(§5) Initial testing used Biotinylated Antibody A Reagent with the other reagents and the methodology described above to analyze the steroid-stripped serum with cortisol. The panel of 34 cross-reactants were individually added to the steroid-stripped serum with a defined concentration of cortisol (5 ng/dL) and assayed. Cross-reactivity data were calculated as follows:
(§6) [formula] The same testing was performed using Biotinylated Antibody L Reagent. The compilation of the percent cross-reactivities for the 34 compounds is referred to as the cross-reactivity profile. The apparent cortisol concentration is the cortisol value obtained when testing a sample containing cortisol and the interfering substance by the above test method that also detects the interfering substance to some degree.

In test [2] the test system is Antibody L specific for cortisol (clone XM210, IgG2a). The test is described as follows: LOCI competitive cortisol immunoassay, cross-reactivity screening with Biotinylated Antibody L Reagent. The settings on record: 100% L Biotinylated Antibody; steroid-stripped serum with cortisol (5 ng/dL). The method, then: as §1, §2, §3, §4, §5, §6
The subject of test [3] is mixture of Biotinylated Antibody A Reagent and Biotinylated Antibody L Reagent. Briefly: LOCI competitive cortisol immunoassay, cross-reactivity with mixtures of Biotinylated Antibody A and L Reagents. The note with it: steroid-stripped serum with cortisol. As for the experimental part:
as §4, §5, §6
A further study was performed by mixing Biotinylated Antibody A Reagent with Biotinylated Antibody L Reagent in a 50:50 mixture; 80% Biotinylated Antibody A Reagent: 20% Biotinylated Antibody L Reagent; 75% Biotinylated Antibody A Reagent: 25% Biotinylated Antibody L Reagent; and 70% Biotinylated Antibody A Reagent: 30% Biotinylated Antibody L Reagent. […] These reagents were used to test cross-reactivity in stripped serum with cortisol.

Setting [4] is: 70% A 30% L Biotinylated Antibody.
The mark [5] stands for this setting: 75% A 25% L Biotinylated Antibody.
[6] abbreviates: 80% A 20% L Biotinylated Antibody.

As for `C[C@]12CCC(=O)C[C@H]1CC[C@@H]1[C@@H]2[C@@H](O)C[C@@]2(C)[C@H]1CC[C@]2(O)C(=O)CO` [5β-dihydrocortisol], the percent cross reactivity in test [1] worked out at 0.4%; in test [2], 1.3%; in test [3] (setting [4]) it was 1.0%; in test [3] (setting [5]) it was 0.9%; in test [3] (setting [6]), 0.8%.
Turning to `C[C@H]1C[C@@H]2[C@H]([C@@H](O)C[C@@]3(C)[C@H]2CC[C@]3(O)C(=O)CO)[C@@]2(C)C=CC(=O)C=C12` [6-methyl-prednisolone], the percent cross reactivity was 6.4% in test [1]; 10.7% in test [2]; 8.3% in test [3] (setting [4]); 7.5% in test [3] (setting [5]); 7.2% in test [3] (setting [6]).
Take `C[C@]12CCC(=O)C=C1[C@H](O)C[C@@H]1[C@@H]2[C@@H](O)C[C@@]2(C)[C@H]1CC[C@]2(O)C(=O)CO` [6β-hydroxycortisol]: the percent cross reactivity is listed as 2.7% in test [1]; 100.0% in test [2]; 6.9% in test [3] (setting [4]); 6.2% in test [3] (setting [5]); 5.5% in test [3] (setting [6]).
Turning to `C[C@]12CC[C@H]3[C@@H](CCC4=CC(=O)CC[C@@]43C)[C@@H]1CC[C@@H]2C(=O)CO` [11-deoxycorticosterone], the percent cross reactivity in test [1] turned out to be 0.7%; in test [2], 0.8%; in test [3] (setting [4]), 0.8%; in test [3] (setting [5]), 0.8%; in test [3] (setting [6]), 0.8%.
On to `C[C@]12CCC(=O)C=C1CC[C@@H]1[C@@H]2CC[C@@]2(C)[C@H]1CC[C@]2(O)C(=O)CO` [11-deoxycortisol], for which the percent cross reactivity in test [1] was 39.8%; in test [2], 1.7%; in test [3] (setting [4]), 3.0%; in test [3] (setting [5]), 3.2%; in test [3] (setting [6]), 3.7%.
Turning to `C[C@]12CC[C@@H](O)C[C@H]1CC[C@@H]1[C@@H]2C(=O)C[C@]2(C)C(=O)CC[C@@H]12` [11-ketoetiocholanolone], the percent cross reactivity in test [1], in test [2], in test [3] (setting [4]), in test [3] (setting [5]) and in test [3] (setting [6]) was 0.0% throughout.
`CC(=O)[C@H]1CC[C@H]2[C@@H]3CCC4=CC(=O)CC[C@]4(C)[C@H]3[C@@H](O)C[C@]12C` [11β-hydroxyprogesterone]: the percent cross reactivity came to 0.6% in test [1]; 0.7% in test [2]; 0.7% in test [3] (setting [4]); 0.7% in test [3] (setting [5]); 0.6% in test [3] (setting [6]).
In the case of `CC(=O)[C@@]1(O)CC[C@H]2[C@@H]3CCC4=CC(=O)CC[C@]4(C)[C@H]3CC[C@@]21C` [17α-hydroxyprogesterone], the percent cross reactivity in test [1] came out at 24.1%; in test [2] it was 0.9%; in test [3] (setting [4]), 1.6%; in test [3] (setting [5]), 1.8%; in test [3] (setting [6]), 2.1%.
`CC(=O)[C@@]1(O)CC[C@H]2[C@@H]3CC=C4C[C@@H](O)CC[C@]4(C)[C@H]3CC[C@@]21C` [17β-hydroxypregnenolone]: the percent cross reactivity in test [1], in test [2], in test [3] (setting [4]), in test [3] (setting [5]) and in test [3] (setting [6]) was 0.1% throughout.
As for `C[C@]12CCC(=O)C=C1CC[C@@H]1[C@@H]2[C@@H](O)C[C@@]2(C)[C@H]1CC[C@]2(O)[C@@H](O)CO` [20α-dihydrocortisol], the percent cross reactivity in test [1] is reported as 0.4%; in test [2] it was 0.9%; in test [3] (setting [4]), 0.7%; in test [3] (setting [5]), 0.6%; in test [3] (setting [6]) it was 0.6%.
On to `C[C@]12CCC(=O)C=C1CC[C@@H]1[C@@H]2C(=O)C[C@@]2(C)[C@H]1CC[C@]2(O)[C@@H](O)CO` [20α-dihydrocortisone], for which the percent cross reactivity is 1.5% in test [1]; 0.2% in test [2]; 0.4% in test [3] (setting [4]); 0.5% in test [3] (setting [5]); 0.5% in test [3] (setting [6]).
For `C[C@]12CCC(=O)C=C1CC[C@@H]1[C@@H]2[C@@H](O)C[C@@]2(C)[C@H]1CC[C@]2(O)[C@H](O)CO` [20β-dihydrocortisol], the percent cross reactivity in test [1] is listed as 0.6%; in test [2], 2.1%; in test [3] (setting [4]), 1.6%; in test [3] (setting [5]) it was 1.5%; in test [3] (setting [6]), 1.3%.
`C[C@]12CCC(=O)C=C1CC[C@@H]1[C@@H]2C(=O)C[C@@]2(C)[C@H]1CC[C@]2(O)[C@H](O)CO` [20β-dihydrocortisone]: the percent cross reactivity in test [1], in test [2], in test [3] (setting [4]), in test [3] (setting [5]) and in test [3] (setting [6]) was 0.1% in each case.
As for `CC(=O)[C@@]1(O)CC[C@H]2[C@@H]3CCC4=CC(=O)CC[C@]4(C)[C@H]3[C@@H](O)C[C@@]21C` [21-deoxycortisol], the percent cross reactivity in test [1] came out at 8.3%; in test [2], 6.4%; in test [3] (setting [4]), 7.2%; in test [3] (setting [5]), 6.9%; in test [3] (setting [6]), 6.9%.
Regarding `CC(=O)[C@@]1(O)CC[C@H]2[C@@H]3CCC4=CC(=O)CC[C@]4(C)[C@H]3C(=O)C[C@@]21C` [21-deoxycortisone], the percent cross reactivity in test [1] is reported as 36.4%; in test [2], 1.4%; in test [3] (setting [4]), 2.5%; in test [3] (setting [5]), 2.7%; in test [3] (setting [6]) it was 3.1%.
`C[C@]12CCC(=O)C=C1CC[C@@H]1[C@@H]2[C@@H](O)C[C@]2(C=O)[C@@H](C(=O)CO)CC[C@@H]12` [Aldosterone]: the percent cross reactivity in test [1], in test [2], in test [3] (setting [4]), in test [3] (setting [5]) and in test [3] (setting [6]) was 0.3% throughout.
`C[C@]12CC[C@@H](O)C[C@@H]1CC[C@@H]1[C@@H]2[C@@H](O)C[C@@]2(C)[C@H]1CC[C@]2(O)C(=O)CO` [allotetrahydrocortisol]: the percent cross reactivity is listed as 4.7% in test [1]; 8.1% in test [2]; 7.1% in test [3] (setting [4]); 6.5% in test [3] (setting [5]); 6.0% in test [3] (setting [6]).
As for `C[C@]12C[C@H](O)[C@H]3[C@@H](CCC4=CC(=O)CC[C@@]43C)[C@@H]1CC[C@@H]2C(=O)CO` [corticosterone], the percent cross reactivity is listed as 0.6% in test [1]; 3.0% in test [2]; 1.8% in test [3] (setting [4]); 1.5% in test [3] (setting [5]); 1.4% in test [3] (setting [6]).
